Measured values reported in ChEMBL document CHEMBL5528053, “Discovery of Novel Isoquinoline Analogues as Dual Tubulin Polymerization/V-ATPase Inhibitors with Immunogenic Cell Death Induction” (J Med Chem, 2024).
Activity calls are given as the source filed them. The rule behind the calls is not given here.

Assays:
A549 = experiment: Antiproliferative activity against human A549 cells assessed as inhibition of cell growth after 72 hrs by MTT assay; assay type: functional, cell-based; conditions: A549, 72 h
DU-145 = experiment: Antiproliferative activity against human DU-145 cells assessed as inhibition of cell growth after 72 hrs by MTT assay; assay type: functional, cell-based; conditions: DU-145, 72 h
PC-3 [1] = experiment: Antiproliferative activity against human PC-3 cells assessed as inhibition of cell growth after 72 hrs by MTT assay; assay type: functional, cell-based; conditions: PC-3, 72 h
MDA-MB-231 = experiment: Antiproliferative activity against human MDA-MB-231 cells assessed as inhibition of cell growth after 72 hrs by MTT assay; assay type: functional, cell-based; conditions: MDA-MB-231, 72 h
[2] = Antitumor activity against mouse RM1 cells xenografted in immunocompetent […] mouse model assessed as tumor growth inhibition at 5 mg/kg, iv measured every two days for 14 days relative to control; assay type: functional; conditions: RM1, 336 h, time 14 day, read-out: TGI
[3] = Toxicity in ICR mouse assessed as bone marrow suppression by measuring WBC level at 5 mg/kg, ip measured for 14 days; assay type: organism-based; conditions: in vivo, 336 h, time 14 day
[4] = Toxicity in ICR mouse assessed as bone marrow suppression by measuring RBC level at 5 mg/kg, ip measured for 14 days; assay type: organism-based, Erythrocyte; conditions: in vivo, 336 h, time 14 day
[5] = Toxicity in ICR mouse assessed as bone marrow suppression by measuring hemoglobin count at 5 mg/kg, ip measured for 14 days; assay type: organism-based; conditions: in vivo, 336 h, time 14 day
[6] = Toxicity in ICR mouse assessed as decrease in lymphocytes at 5 mg/kg, ip measured for 14 days; assay type: organism-based; conditions: in vivo, 336 h, time 14 day
[7] = Toxicity in ICR mouse assessed as effect on ALT level at 5 mg/kg, ip measured for 14 days; assay type: organism-based; conditions: in vivo, 336 h, time 14 day
[8] = Antitumor activity against mouse RM1 cells homografted in C57BL/6 mouse model assessed as tumor growth inhibition at 5 mg/kg, iv administered every two days for 14 days by vernier caliper based analysis relative to control; assay type: functional; conditions: RM1, 336 h, time 14 day, read-out: TGI
[9] = Antitumor immunity against mouse RM1 cells homografted in C57BL/6 mouse model assessed as increase in tumor infiltrating lymphocytes at 5 mg/kg, iv administered every two days for 14 days by flow cytometry analysis (reference value: 5.26%); assay type: functional; conditions: time 14 day
[10] = Antitumor immunity against mouse RM1 cells homografted in C57BL/6 mouse model assessed as increase in tumor infiltrating CD3+CD8+T cells (CTLs) at 5 mg/kg, iv administered every two days for 14 days by flow cytometry analysis (reference value: 0.89%); assay type: functional; conditions: time 14 day
[11] = Antitumor immunity against mouse RM1 cells homografted in C57BL/6 mouse model assessed as increase in tumor infiltrating helper T lymphocytes at 5 mg/kg, iv administered every two days for 14 days by flow cytometry analysis (reference value: 6.59%); assay type: functional; conditions: time 14 day
RM1 [12] = experiment: Antitumor immunity against mouse RM1 cells homografted in C57BL/6 mouse model assessed as increase in tumor infiltrating CD3+CD8+T cells (CTLs) in spleen at 5 mg/kg, iv administered every two days for 14 days by flow cytometry analysis; assay type: functional, organism-based; conditions: time 14.0 day
RM1 [13] = experiment: Antitumor immunity against mouse RM1 cells homografted in C57BL/6 mouse model assessed as increase in tumor infiltrating helper T lymphocytes in spleen at 5 mg/kg, iv administered every two days for 14 days by flow cytometry analysis; assay type: functional, organism-based; conditions: time 14.0 day
RM1 [14] = experiment: Antitumor immunity against mouse RM1 cells homografted in C57BL/6 mouse model assessed as increase in activation of tumor infiltrating lymphocytes in spleen at 5 mg/kg, iv administered every two days for 14 days by flow cytometry analysis; assay type: functional, organism-based; conditions: time 14.0 day
PC-3 [15] = experiment: Inhibition of autophagy in human PC-3 cells assessed as increase in number of autophagosomes at 50 uM measured after 3 hrs by immunofluorescence imaging based analysis; assay type: functional, cell-based
[16] = Anticancer activity against mouse RM1 cells assessed as increase in mean fluorescence intensity at 2 nM measured after 24 hrs by flow cytometry analysis (reference value: 7.40+/-3.96 ); assay type: functional

Row | Structure (SMILES) | IC50 (A549) [nM] | IC50 (DU-145) [nM] | IC50 (PC-3 [1]) [nM] | IC50 (MDA-MB-231) [nM] | other results
1 | COc1cc(-c2nc(C(N)=O)cc3cc4c(cc23)OCCO4)cc(I)c1OC | 180 | 300 | 170 | 300 | –
2 | COc1cc(-c2nc(C(N)=O)cc3cc4c(cc23)OCCO4)cc2c1OCO2 | 2010 | 750 | 1120 | 1310 | –
3 | COc1cc2c(O)c3c(c(-c4ccc5c(c4)OCO5)c2cc1OC)C(=O)OC3 [DIPHYLLIN] | 890 | 380 | 210 | 2270 | –
4 | COc1ccc2c(-c3cc(OC)c(OC)c(OC)c3)nc(C(N)=O)cc2c1 | > 10000 | > 10000 | > 10000 | > 10000 | –
5 | CC(=O)O[C@H]1C(=O)[C@@]2(C)[C@H]([C@H](OC(=O)c3ccccc3)[C@]3(O)C[C@H](OC(=O)[C@H](O)[C@@H](NC(=O)c4ccccc4)c4ccccc4)C(C)=C1C3(C)C)[C@]1(OC(C)=O)CO[C@@H]1C[C@@H]2O [PACLITAXEL] | – | – | – | – | inhibition in vivo at 5 mg/kg [2]: 55.5%; Activity [3]: Toxic; Activity [4]: Toxic; Activity [5]: Toxic; Activity [6]: Toxic; Activity [7]: Toxic; inhibition in vivo at 5 mg/kg [8]: 54.6%; Activity [9]: 5.68%; Activity [10]: 1.16%; Activity [11]: 9.81%; Activity (RM1 [12]): inactive; Activity (RM1 [13]): inactive; Activity (RM1 [14]): Active
6 | CCOc1c(OC)cc(-c2nc(C(N)=O)cc3cc4c(cc23)OCCO4)cc1OC | > 10000 | > 10000 | > 10000 | > 10000 | –
7 | CCCOc1cc(-c2nc(C(N)=O)cc3cc4c(cc23)OCCO4)cc(OC)c1OC | 5560 | > 10000 | > 10000 | > 10000 | –
8 | COc1c(I)cc(-c2nc(C(N)=O)cc3cc4c(cc23)OCCO4)cc1I | 2150 | 3220 | 1980 | 730 | –
9 | COc1cc(-c2nc(C(N)=O)cc3cc(OCCCN4CCOCC4)ccc23)cc(OC)c1OC | > 10000 | > 10000 | > 10000 | > 10000 | –
10 | COC(=O)c1cc2cc3c(cc2c(-c2cc(OC)c(OC)c(OC)c2)n1)OCCO3 | 1530 | 2100 | 1570 | 3210 | –
11 | COc1cc(-c2nc(C(=O)O)cc3cc4c(cc23)OCCO4)cc(OC)c1OC | > 10000 | > 10000 | > 10000 | > 10000 | –
12 | CCOc1ccc2c(-c3cc(OC)c(OC)c(OC)c3)nc(C(N)=O)cc2c1 | > 10000 | > 10000 | > 10000 | > 10000 | –
13 | COc1cc(-c2nc(C(=O)NO)cc3cc4c(cc23)OCCO4)cc(OC)c1OC | 1750 | 1940 | 1480 | 1580 | –
14 | CCCOc1c(OC)cc(-c2nc(C(N)=O)cc3cc4c(cc23)OCCO4)cc1OC | 1390 | 1640 | 1990 | 2420 | –
15 | COc1cc(-c2nc(C(N)=O)cc3cc4c(cc23)OCCO4)cc(OC)c1OC | 840 | 1050 | 1180 | 1270 | –
16 | COc1cc(-c2nc(CO)cc3cc4c(cc23)OCCO4)cc(OC)c1OC | 1260 | 1460 | 1630 | 1350 | –
17 | COc1c(Br)cc(-c2nc(C(N)=O)cc3cc4c(cc23)OCCO4)cc1Br | 200 | 320 | 270 | 400 | –
18 | COc1c(Cl)cc(-c2nc(C(N)=O)cc3cc4c(cc23)OCCO4)cc1Cl | 250 | 490 | 640 | 870 | –
19 | COc1cc2c(c(OC)c1OC)-c1ccc(OC)c(=O)cc1[C@@H](NC(C)=O)CC2 [COLCHICINE] | – | 70 | 50 | 120 | –
20 | COc1cc(-c2nc(C(N)=O)cc3cc4c(cc23)OCCO4)cc2c1OCCO2 | 1850 | 1560 | 1350 | 750 | –
21 | COc1cc(-c2nc(C(N)=O)cc3cc4c(cc23)OCCO4)cc2c1OCCCO2 | 2950 | 8350 | 3340 | > 10000 | –
22 | CCN(CC)CCCC(C)Nc1ccnc2cc(Cl)ccc12 (stereo unspecified) | – | – | – | – | inhibition (PC-3 [15]): Active
23 | COc1cccc2c1C(=O)c1c(O)c3c(c(O)c1C2=O)C[C@@](O)(C(=O)CO)C[C@@H]3O[C@H]1C[C@H](N)[C@H](O)[C@H](C)O1 [DOXORUBICIN] | – | – | – | – | Flu intensity [16]: 184.3
24 | CCCOc1ccc2c(-c3cc(OC)c(OC)c(OC)c3)nc(C(N)=O)cc2c1 | > 10000 | > 10000 | > 10000 | > 10000 | –
25 | COc1cc(-c2nc(C(N)=O)cc3cc4c(cc23)OCCO4)cc(Cl)c1OC | 160 | 270 | 200 | 210 | –
26 | CCOc1cc(-c2nc(C(N)=O)cc3cc4c(cc23)OCCO4)cc(OC)c1OC | 370 | 540 | 390 | 480 | –
